Experimental data reported in patent US4239709A, “Process for preparing optically active oxazaphosphorins” (Otsuka Pharmaceutical Co., Ltd., priority 1978, dated 1980).
Read-outs that look alike come from different tables or passages of the source.

Experiments:
[1] = tested on: Lymphoid leukemia L-1210 solid-type tumor; assay: L1210 Tumor test (solid-type tumor, subcutaneous, inhibition of tumor proliferation by tumor weight); type: in vivo, BDF1 male mice; settings: for ID50 / ID90 / ED50 / ED90: L1210 tumor; for ED50 / ED90: Mus musculus; for ED50: read-out: ID50 (the source's name); for ED90: read-out: ID90 (the source's name)
Experimental: (§1) Lymphoid leukemia L-1210 solid-type tumor was transplanted (1×10^6 cells) in subcutis on the back of BDF1 male mice having the body weight of about 22 g. The mice were killed 10-11 days after the transplantation and the inhibitory effect of tumor proliferation was evaluated by measuring the weight of tumor.
(§2) Each of 5, 10, 20, 50, 100 mg of compounds to be tested is dissolved in a phisiological NaCl solution (5 mg/kg of concentration) and administered by intraperitoneal injection (I.P.) or orally (P.O.). As to the reference the phisiological NaCl solution (5 mg/kg of concentration) was used.

[2] = tested on: Lymphocytic leukemia P388 tumor; assay: P388 tumor test (Table 2, headed P328 Tumor test); type: in vivo, BDF1 male mice; settings: for ED50 / ED90: Mus musculus, P388, ip; for ED50: read-out: ID50 (the source's name); for ED90: read-out: ID90 (the source's name)
Experimental: Lymphocytic leukemia P388 liquid-type tumor was transplanted (1×10^6 cells) in abdominal cavity of BDF1 male mice having the body weight of about 20 g. The effect was evaluated by a method of ILS (Increase in life span).
as §1, with “Similarly lymphocytic” for “Lymphoid”, “P388” for “L-1210”, “15 to 16” for “10-11”
as §2

[3] = Acute toxicity test (LD50); type: in vivo, ICR male mice; settings: for LD50: ICR male mice, I.P.
From the text: LD50 (mg/kg) values (ICR male mice, I.P.) of R-(+)-cyclophosphamide, S-(-)-cyclophosphamide and racemic form of cyclophosphamide are shown below.

PC6-Tumor = settings: compared with R-(+)-cyclophosphamide and racemic form; Cox et al. 1976; cited from earlier work
[4] = compared with R-(+)-cyclophosphamide; Cox et al. 1976; cited from earlier work
[5] = tested on: Lymphoid leukemia L-1210 solid-type tumor; assay: L1210 Tumor test (solid-type tumor, subcutaneous, inhibition of tumor proliferation by tumor weight); type: in vivo, BDF1 male mice; settings: Mus musculus, L1210, sc, I.O. (so in the source)
[6] = P328 Tumor test (so in the source), I.P.
[7] = mouse, in vivo, ip, read-out: LD50

With O=P1(N(CCCl)CCCl)NCCCO1 (single isomer, unassigned) [S-(-)-cyclophosphamide] as the molecule, how does the ID50 ([1]; I.P.) read?
Its ID50 is 44 mg/kg.

What about the ID90 ([1]; I.P.) of the same molecule?
The ID90 was 143 mg/kg.

And the ID50 ([1]; P.O.)?
Its ID50 is 29 mg/kg.

What about the ID90 ([1]; P.O.) of the same molecule?
The ID90 was 95 mg/kg.

And the ID50 [2, 6]?
Its ID50 is 14.6 mg/kg.

What about the ID90 [2, 6] of the same molecule?
Its ID90 is 26.3 mg/kg.

And the “anti-tumor effect against P388-Tumor” value ([2]; compared with R-(+)-cyclophosphamide and racemic form)?
Its value is “better than those of R-(+)-cyclophosphamide and racemic form of cyclophosphamide”.

What about the LD50 [3] of the same molecule?
Its LD50 is 330 mg/kg.

What about the “anti-tumor effect against PC6-Tumor” value (PC6-Tumor) of the same molecule?
Its value is “better than those of R-(+)-cyclophosphamide and racemic form of cyclophosphamide”.

And the pharmacological activities [4]?
The pharmacological activities was “excellent pharmacological activities as compared with R-(+)-cyclophosphamide”.

For O=P1(N(CCCl)CCCl)NCCCO1 (racemic) [Racemic form of cyclophosphamide, cyclophosphamide], which ED50 ([1]; L1210, po, P.O.) is on record?
Its ED50 is 28 mg/kg.

What about the ED90 ([1]; L1210, po, P.O.) of the same molecule?
Its ED90 is 90 mg/kg.

And the ED50 [2, 6]?
The ED50 was 12.9 mg/kg.

And the ED90 [2, 6]?
The ED90 was 39.7 mg/kg.

And the LD50 [3, 7]?
Its LD50 is 440 mg/kg.

What about the ED50 ([5]; read-out: ID50 (the source's name)) of the same molecule?
Its ED50 is 33 mg/kg.

What about the ED90 ([5]; read-out: ID90 (the source's name)) of the same molecule?
The ED90 was 107 mg/kg.

For O=P1(N(CCCl)CCCl)NCCCO1 (single isomer, unassigned) [R-(+)-cyclophosphamide], which ED50 ([1]; L1210, ip, I.P.) is on record?
Its ED50 is 32 mg/kg.

What about the ED90 ([1]; L1210, ip, I.P.) of the same molecule?
Its ED90 is 104 mg/kg.

What about the ED50 ([1]; L1210, po, P.O.) of the same molecule?
The ED50 was 24 mg/kg.

What about the ED90 ([1]; L1210, po, P.O.) of the same molecule?
The ED90 was 76 mg/kg.

What about the “anti-tumor effect against L 1210-Tumor” value ([1]; compared with S-(-)-cyclophosphamide and racemic form) of the same molecule?
Its value is “better anti-tumor effect than those of shown by S-(-)-cyclophosphamide and racemic form of cyclophosphamide”.

And the ED50 [2, 6]?
The ED50 was 24.3 mg/kg.

And the ED90 [2, 6]?
The ED90 was 50.8 mg/kg.

What about the acute toxicity ([3]; in mice, compared with S-(-)-cyclophosphamide and racemic form) of the same molecule?
The acute toxicity was “lower acute toxicity (in mice) than those shown by S-(-)-cyclophosphamide and racemic form of cyclophosphamide”.

What about the LD50 [3, 7] of the same molecule?
Its LD50 is 550 mg/kg.
